Tests used:
Experiment in all cases: Test B pre-/postemergence plant response
Assay type in all cases: in vivo
[1] = system: Italian ryegrass (Lolium multiflorum); conditions: for Ryegrass, Italian plant response rating (0 to 100 scale): 62 g ai/ha, postemergence, 0 is no effect, 100 is complete control, 13 to 15 days; for Plant response rating, Ryegrass, Italian: Postemergence, scale 0 to 100 (0 no effect, 100 complete control)
Method in brief: (§1)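 Seeds were sown in loam soil/sand blend and treated preemergence with compound in non-phytotoxic solvent mixture containing surfactant; postemergence sprays, same formulation, went onto plants 2 to 18 cm (1- to 4-leaf stage) in peat-based planting medium. Greenhouse 13 to 15 days, then visual rating versus untreated controls, 0 (no effect) to 100 (complete control).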

[2] = system: blackgrass (Alopecurus myosuroides); conditions: for Blackgrass plant response rating (0 to 100 scale): 62 g ai/ha, 0 is no effect, 13 to 15 days
Method in brief: as §1

[3] = system: cocklebur (Xanthium strumarium); conditions: for Cocklebur plant response rating (0 to 100 scale): 62 g ai/ha, 0 is no effect, 13 to 15 days
Method in brief: as §1

corn (Zea mays) = conditions: for Corn plant response rating (0 to 100 scale): 62 g ai/ha, 0 is no effect, 13 to 15 days
Method in brief: as §1

[4] = system: giant foxtail (Setaria faberii); conditions: for Foxtail, Giant plant response rating (0 to 100 scale): 62 g ai/ha, 0 is no effect, 13 to 15 days
Method in brief: as §1

[5] = system: goosegrass (Eleusine indica); conditions: for Goosegrass plant response rating (0 to 100 scale): 62 g ai/ha, 0 is no effect, 13 to 15 days
Method in brief: as §1

[6] = system: green foxtail (Setaria viridis); conditions: for Foxtail, Green plant response rating (0 to 100 scale): 62 g ai/ha, 0 is no effect, 13 to 15 days
Method in brief: as §1

[7] = system: johnsongrass (Sorghum halepense); conditions: for Johnsongrass plant response rating (0 to 100 scale): 62 g ai/ha, 0 is no effect, 13 to 15 days
Method in brief: as §1

kochia (Kochia scoparia) = conditions: for Kochia plant response rating (0 to 100 scale): 62 g ai/ha, 0 is no effect, 13 to 15 days
Method in brief: as §1

[8] = system: large crabgrass (Digitaria sanguinalis); conditions: for Crabgrass, Large plant response rating (0 to 100 scale): 62 g ai/ha, 0 is no effect, 13 to 15 days
Method in brief: as §1

[9] = system: morningglory (Ipomoea coccinea); conditions: for Morningglory plant response rating (0 to 100 scale): 62 g ai/ha, 0 is no effect, 13 to 15 days
Method in brief: as §1

[10] = system: ragweed (common ragweed, Ambrosia elatior); conditions: for Ragweed plant response rating (0 to 100 scale): 62 g ai/ha, postemergence, 0 is no effect, 100 is complete control, 13 to 15 days; for Plant response rating, Ragweed: Postemergence, scale 0 to 100 (0 no effect, 100 complete control)
Method in brief: as §1

soybean (Glycine max) = conditions: for Soybean plant response rating (0 to 100 scale): 62 g ai/ha, postemergence, 0 is no effect, 100 is complete control, 13 to 15 days; for Plant response rating, Soybean: Postemergence, scale 0 to 100 (0 no effect, 100 complete control)
Method in brief: as §1

[11] = system: velvetleaf (Abutilon theophrasti); conditions: for Velvetleaf plant response rating (0 to 100 scale): 62 g ai/ha, postemergence, 0 is no effect, 100 is complete control, 13 to 15 days; for Plant response rating, Velvetleaf: Postemergence, scale 0 to 100 (0 no effect, 100 complete control)
Method in brief: as §1

[12] = 31 g ai/ha, postemergence, scale 0 to 100, 0 is no effect, 100 is complete control
[13] = postemergence, 100 is complete control
[14] = Postemergence, 125 g ai/ha, scale 0 to 100 (0 no effect, 100 complete control)
[15] = Postemergence, 250 g ai/ha, scale 0 to 100 (0 no effect, 100 complete control)

CCCn1c(-c2ccc(F)cc2)ncc(C(=O)C2=C(O)CCCC2=O)c1=O [Compound 102]
95: Cocklebur plant response rating (0 to 100 scale) [3, 13] | Plant response rating, Foxtail, Giant [4, 15] | Plant response rating, Foxtail, Green [6, 15] | Plant response rating, Ragweed ([10]; 250 g ai/ha) | Plant response rating, Soybean (soybean (Glycine max); 125 g ai/ha)
85: Plant response rating, Crabgrass, Large [8, 14] | Plant response rating, Ragweed ([10]; 125 g ai/ha) | Soybean plant response rating (0 to 100 scale) (soybean (Glycine max))
25: Johnsongrass plant response rating (0 to 100 scale) [7, 13]
55: Plant response rating, Goosegrass [5, 12]
60: Plant response rating, Johnsongrass [7, 14]
0: Ryegrass, Italian plant response rating (0 to 100 scale) [1] | Plant response rating, Blackgrass [2, 12]
100: Plant response rating, Cocklebur [3, 14] | Plant response rating, Cocklebur [3, 15] | Plant response rating, Kochia (kochia (Kochia scoparia); [14]) | Plant response rating, Kochia (kochia (Kochia scoparia); [15]) | Morningglory plant response rating (0 to 100 scale) [9, 13] | Plant response rating, Morningglory [9, 14] | Plant response rating, Morningglory [9, 15] | Plant response rating, Soybean (soybean (Glycine max); 250 g ai/ha) | Velvetleaf plant response rating (0 to 100 scale) [11] | Plant response rating, Velvetleaf ([11]; 125 g ai/ha) | Plant response rating, Velvetleaf ([11]; 250 g ai/ha)
10: Plant response rating, Ryegrass, Italian ([1]; 250 g ai/ha)
5: Plant response rating, Ryegrass, Italian ([1]; 125 g ai/ha) | Blackgrass plant response rating (0 to 100 scale) [2, 13]
15: Corn plant response rating (0 to 100 scale) (corn (Zea mays); [13])
65: Plant response rating, Corn (corn (Zea mays); [14]) | Plant response rating, Kochia (kochia (Kochia scoparia); [12]) | Plant response rating, Morningglory [9, 12]
30: Plant response rating, Blackgrass [2, 14]
20: Plant response rating, Johnsongrass [7, 12]
45: Plant response rating, Blackgrass [2, 15]
80: Plant response rating, Foxtail, Giant [4, 14] | Plant response rating, Goosegrass [5, 14] | Plant response rating, Foxtail, Green [6, 12] | Crabgrass, Large plant response rating (0 to 100 scale) [8, 13] | Ragweed plant response rating (0 to 100 scale) [10]
75: Foxtail, Giant plant response rating (0 to 100 scale) [4, 13] | Plant response rating, Johnsongrass [7, 15]
70: Plant response rating, Corn (corn (Zea mays); [15]) | Plant response rating, Foxtail, Giant [4, 12] | Goosegrass plant response rating (0 to 100 scale) [5, 13] | Kochia plant response rating (0 to 100 scale) (kochia (Kochia scoparia); [13]) | Plant response rating, Crabgrass, Large [8, 12]
90: Plant response rating, Cocklebur [3, 12] | Plant response rating, Goosegrass [5, 15] | Foxtail, Green plant response rating (0 to 100 scale) [6, 13] | Plant response rating, Foxtail, Green [6, 14] | Plant response rating, Crabgrass, Large [8, 15]

COCC(C)n1c(-c2ccccc2)ncc(C(=O)C2=C(O)CCCC2=O)c1=O (stereo not drawn) [Compound 107]
95: Plant response rating, Foxtail, Giant [4, 15] | Plant response rating, Crabgrass, Large [8, 15] | Plant response rating, Ragweed ([10]; 125 g ai/ha)
60: Plant response rating, Johnsongrass [7, 12]
90: Plant response rating, Foxtail, Green [6, 14] | Plant response rating, Johnsongrass [7, 15] | Plant response rating, Crabgrass, Large [8, 14]
65: Plant response rating, Corn (corn (Zea mays); [12]) | Corn plant response rating (0 to 100 scale) (corn (Zea mays); [13])
85: Plant response rating, Corn (corn (Zea mays); [15]) | Plant response rating, Foxtail, Giant [4, 14] | Plant response rating, Goosegrass [5, 15] | Crabgrass, Large plant response rating (0 to 100 scale) [8, 13] | Ragweed plant response rating (0 to 100 scale) [10]
75: Plant response rating, Corn (corn (Zea mays); [14]) | Plant response rating, Foxtail, Giant [4, 12] | Plant response rating, Goosegrass [5, 12] | Goosegrass plant response rating (0 to 100 scale) [5, 13] | Plant response rating, Goosegrass [5, 14] | Foxtail, Green plant response rating (0 to 100 scale) [6, 13] | Plant response rating, Crabgrass, Large [8, 12]
5: Plant response rating, Ryegrass, Italian ([1]; 125 g ai/ha) | Plant response rating, Ryegrass, Italian ([1]; 250 g ai/ha) | Blackgrass plant response rating (0 to 100 scale) [2, 13]
20: Plant response rating, Blackgrass [2, 15]
98: Plant response rating, Cocklebur [3, 12] | Plant response rating, Foxtail, Green [6, 15] | Plant response rating, Kochia (kochia (Kochia scoparia); [12]) | Kochia plant response rating (0 to 100 scale) (kochia (Kochia scoparia); [13]) | Plant response rating, Ragweed ([10]; 250 g ai/ha) | Soybean plant response rating (0 to 100 scale) (soybean (Glycine max))
100: Cocklebur plant response rating (0 to 100 scale) [3, 13] | Plant response rating, Cocklebur [3, 14] | Plant response rating, Cocklebur [3, 15] | Plant response rating, Kochia (kochia (Kochia scoparia); [14]) | Plant response rating, Kochia (kochia (Kochia scoparia); [15]) | Plant response rating, Morningglory [9, 12] | Morningglory plant response rating (0 to 100 scale) [9, 13] | Plant response rating, Morningglory [9, 14] | Plant response rating, Morningglory [9, 15] | Plant response rating, Soybean (soybean (Glycine max); 125 g ai/ha) | Plant response rating, Soybean (soybean (Glycine max); 250 g ai/ha) | Velvetleaf plant response rating (0 to 100 scale) [11] | Plant response rating, Velvetleaf ([11]; 125 g ai/ha) | Plant response rating, Velvetleaf ([11]; 250 g ai/ha)
80: Foxtail, Giant plant response rating (0 to 100 scale) [4, 13]
70: Plant response rating, Foxtail, Green [6, 12] | Johnsongrass plant response rating (0 to 100 scale) [7, 13] | Plant response rating, Johnsongrass [7, 14]
15: Plant response rating, Blackgrass [2, 14]
0: Ryegrass, Italian plant response rating (0 to 100 scale) [1] | Plant response rating, Blackgrass [2, 12]

COCCn1c(-c2cccc(C)c2)ncc(C(=O)C2=C(O)CCCC2=O)c1=O [Compound 117]
25: Plant response rating, Corn (corn (Zea mays); [14]) | Plant response rating, Corn (corn (Zea mays); [15]) | Plant response rating, Johnsongrass [7, 15]
0: Plant response rating, Blackgrass [2, 12]
10: Ryegrass, Italian plant response rating (0 to 100 scale) [1] | Blackgrass plant response rating (0 to 100 scale) [2, 13] | Plant response rating, Corn (corn (Zea mays); [12]) | Plant response rating, Morningglory [9, 12]
40: Plant response rating, Blackgrass [2, 14] | Plant response rating, Blackgrass [2, 15]
20: Johnsongrass plant response rating (0 to 100 scale) [7, 13]
100: Plant response rating, Cocklebur [3, 15] | Plant response rating, Morningglory [9, 15] | Plant response rating, Velvetleaf ([11]; 250 g ai/ha)
85: Plant response rating, Goosegrass [5, 15] | Plant response rating, Kochia (kochia (Kochia scoparia); [15]) | Velvetleaf plant response rating (0 to 100 scale) [11]
70: Foxtail, Green plant response rating (0 to 100 scale) [6, 13]
45: Plant response rating, Goosegrass [5, 12] | Plant response rating, Kochia (kochia (Kochia scoparia); [12])
5: Plant response rating, Johnsongrass [7, 12]
75: Plant response rating, Cocklebur [3, 12] | Cocklebur plant response rating (0 to 100 scale) [3, 13] | Foxtail, Giant plant response rating (0 to 100 scale) [4, 13] | Goosegrass plant response rating (0 to 100 scale) [5, 13] | Plant response rating, Goosegrass [5, 14] | Plant response rating, Crabgrass, Large [8, 12] | Morningglory plant response rating (0 to 100 scale) [9, 13] | Ragweed plant response rating (0 to 100 scale) [10]
95: Plant response rating, Foxtail, Giant [4, 15] | Plant response rating, Foxtail, Green [6, 15] | Plant response rating, Crabgrass, Large [8, 14] | Plant response rating, Crabgrass, Large [8, 15] | Plant response rating, Soybean (soybean (Glycine max); 125 g ai/ha) | Plant response rating, Soybean (soybean (Glycine max); 250 g ai/ha) | Plant response rating, Velvetleaf ([11]; 125 g ai/ha)
65: Plant response rating, Foxtail, Giant [4, 12]
80: Plant response rating, Foxtail, Giant [4, 14] | Plant response rating, Foxtail, Green [6, 14] | Crabgrass, Large plant response rating (0 to 100 scale) [8, 13] | Plant response rating, Morningglory [9, 14] | Soybean plant response rating (0 to 100 scale) (soybean (Glycine max))
98: Plant response rating, Cocklebur [3, 14] | Plant response rating, Ragweed ([10]; 250 g ai/ha)
15: Plant response rating, Ryegrass, Italian ([1]; 125 g ai/ha) | Corn plant response rating (0 to 100 scale) (corn (Zea mays); [13])
90: Plant response rating, Ragweed ([10]; 125 g ai/ha)
50: Plant response rating, Ryegrass, Italian ([1]; 250 g ai/ha) | Plant response rating, Foxtail, Green [6, 12] | Kochia plant response rating (0 to 100 scale) (kochia (Kochia scoparia); [13])

— US8952024B2, “Herbicidal pyrimidone derivatives” (E I du Pont de Nemours and Company, priority 2009, dated 2015)
